In this assay the target is T1, cereblon (CRBN)—DNA damage protein 1 (DDB1) complex (Homo sapiens, UniProt Q96SW2).
T1 construct: encoding amino acid residues 1 to 442 (Uniprot Q96SW2); hexahistidine (N); thrombin cleavage site (N); made in house; host or cells: Sf9 insect cells (baculovirus co-infection)
In words: Cereblon HTRF binding assay. The source says:
The synthesized sequence was designed to encode an N-terminal hexahistidine tag, a thrombin cleavage site, an AviTag™ and a tobacco etch virus protease (TEV) cleavage site followed by the CBRN sequence. The resulting protein sequence is listed below.
The synthesized sequence was designed to encode an N-terminal hexahistidine tag, a tobacco etch virus protease (TEV) cleavage site followed by the DDB1 sequence. […] The linker amino acid residues are underlined and shown in italics.
Baculovirus production of CBRN and DDB1: Recombinant bacmid and P2 virus of CBRN and DDB1 was generated according to the Bac-to-Bac Baculovirus Expression System manual (ThermoFisher Scientific).
Protein Purification: Protein purification was initiated by thawing cells (resuspended in Lysis buffer) at r.t. Once thawed, NaCl was added to a final concentration of 200 mM, followed by 0.01 μL/mL Benzonase™ and the lysate was incubated with slow stirring for 20 minutes. After the freeze-thaw lysis, the whole cell lysate was centrifuged at 48 000 g for 45 minutes and all following purification steps were done on ice or in cold-room. Supernatant (cell lysate) was mixed with 1 mL/50 mL lysate Ni Sepharose™ 6 Fast Flow (Cytiva) pre-equilibrated with Wash buffer (50 mM Tris-Cl pH 8, 20 mM Imidazole, 500 mM NaCl, 10% Glycerol, 1 mM TCEP) and incubated with slow stirring for 1 h. The mix was loaded in a 70 mL open gravity flow column, washed with 10 bed volumes of Wash buffer, and stepwise eluted with 300 mM imidazole in Wash buffer. […] After biotinylation, the CBRN/DDB1 complex was purified by Size Exclusion Chromatography on a HiLoad™ 26/60 Superdex™ 200 column equilibrated in SEC buffer (50 mM HEPES pH 7.5, 200 mM NaCl, 5% glycerol, 1 mM TCEP) before flash-freezing in liquid nitrogen and storage at −80° C.
The assay mixture in a total volume of 4 μL consists of 50 mM Tris-HCl at pH 7.5, 100 mM NaCl, 0.01% Pluronic F127, 1 mM TCEP, 500 μM EDTA, 0.2 nM CRBN-DDB1, 0.2 nM terbium cryptate labeled streptavidin, and 2 nM Cyanine 5-labeled lenalidomide as the probe. […] Reagents were dispensed into the 384-well assay microplate using a Certus Flex liquid dispenser. After incubation for 2 h at r.t., the assay plates were read on a PHERAstar FSX plate reader (BMG Labtech) in the HTRF mode. The raw data from PHERAstar was directly imported into Genedata Screener for analysis. […] The ratio was normalized to positive and negative controls on the same plates to calculate percent inhibition: I %=(I−NC)/(PC−NC), where I are readings from the compound treated well, NC and PC are average readings from negative control wells and positive control wells, respectively. IC50 values were obtained by fitting the I % vs. compound concentration [I] to I %=S0+(SInf−S0)/(1+((IC50/[I])^n)), where S0 is the fitted activity level at zero concentration of test compound, SInf is the fitted activity level at […] concentration of test compound, and n is the hill coefficient of the curve.
The IC50 values reported below are the calculated mean result of one or more experiments.

pIC50: −log10 of the molar value.

T1 sequence (Q96SW2 with tags, fused parts or gaps): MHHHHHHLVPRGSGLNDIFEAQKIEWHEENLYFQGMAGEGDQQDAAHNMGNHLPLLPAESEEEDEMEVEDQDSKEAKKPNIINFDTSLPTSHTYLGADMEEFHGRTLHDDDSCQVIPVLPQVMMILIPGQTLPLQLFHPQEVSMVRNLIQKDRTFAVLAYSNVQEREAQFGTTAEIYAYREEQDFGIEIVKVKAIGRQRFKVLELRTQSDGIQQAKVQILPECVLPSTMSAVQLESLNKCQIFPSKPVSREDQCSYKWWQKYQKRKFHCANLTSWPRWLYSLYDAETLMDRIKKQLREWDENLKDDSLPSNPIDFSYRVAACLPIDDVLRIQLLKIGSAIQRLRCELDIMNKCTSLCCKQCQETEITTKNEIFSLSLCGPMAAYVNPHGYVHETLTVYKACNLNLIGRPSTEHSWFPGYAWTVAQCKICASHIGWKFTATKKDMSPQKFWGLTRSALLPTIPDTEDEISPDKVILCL

The molecule `CC(=O)N1CCN(c2c[nH]c3ccc(N4CCC(=O)NC4=O)cc23)CC1` [Example 79, 1-(3-(4-Acetylpiperazin-1-yl)-1H-indol-5-yl)dihydropyrimidine-2,4 (1H,3H)-dione] showed a pIC50 of 5.70.

For `CN1CCN(c2cn(C)c3ccc(N4CCC(=O)NC4=O)cc23)CC1` [Example 80, 1-(1-Methyl-3-(4-methylpiperazin-1-yl)-1H-indol-5-yl)dihydropyrimidine-2,4 (1H,3H)-dione], the pIC50 was 5.50.

On to `O=C1CCN(c2ccc3cc(C4CCNCC4)[nH]c3c2)C(=O)N1` [Example 81, 1-(2-(Piperidin-4-yl)-1H-indol-6-yl)dihydropyrimidine-2,4 (1H,3H)-dione], for which the pIC50 is 7.19.

For the molecule `CN1CCC(c2cc3ccc(N4CCC(=O)NC4=O)cc3[nH]2)CC1` [Example 82, 1-(2-(1-Methylpiperidin-4-yl)-1H-indol-6-yl)dihydropyrimidine-2,4 (1H,3H)-dione], the negative logarithm of the IC50 (pIC50) is 6.77.

The molecule `CC(=O)N1CCC(c2cc3ccc(N4CCC(=O)NC4=O)cc3[nH]2)CC1` [Example 83, 1-(2-(1-Acetylpiperidin-4-yl)-1H-indol-6-yl)dihydropyrimidine-2,4 (1H,3H)-dione] had a pIC50 of 6.95.

In turn, `Cn1c(C2CCNCC2)cc2ccc(N3CCC(=O)NC3=O)cc21` [Example 84, 1-(1-Methyl-2-(piperidin-4-yl)-1H-indol-6-yl)dihydropyrimidine-2,4 (1H,3H)-dione] showed a pIC50 of 6.45.

With `CN1CCC(c2cc3ccc(N4CCC(=O)NC4=O)cc3n2C)CC1` [Example 85, 1-(1-Methyl-2-(1-methylpiperidin-4-yl)-1H-indol-6-yl)dihydropyrimidine-2,4 (1H,3H)-dione], the pIC50 was 6.71.

For the molecule `O=C1CCN(c2cccc3[nH]c(C4CCNCC4)cc23)C(=O)N1` [Example 86, 1-(2-(Piperidin-4-yl)-1H-indol-4-yl)dihydropyrimidine-2,4 (1H,3H)-dione], the pIC50 is 6.54. The pIC50 values of the last two molecules are within 0.2 log units of each other.

The molecule `CN1CCC(c2cc3c(N4CCC(=O)NC4=O)cccc3[nH]2)CC1` [Example 87, 1-(2-(1-Methylpiperidin-4-yl)-1H-indol-4-yl)dihydropyrimidine-2,4 (1H,3H)-dione] showed a pIC50 of 6.42.

The molecule `Cn1c(C2CCNCC2)cc2c(N3CCC(=O)NC3=O)cccc21` [Example 88, 1-(1-Methyl-2-(piperidin-4-yl)-1H-indol-4-yl)dihydropyrimidine-2,4 (1H,3H)-dione] showed a pIC50 of 6.17.

`CN1CCC(c2cc3c(N4CCC(=O)NC4=O)cccc3n2C)CC1` [Example 89, 1-(1-Methyl-2-(1-methylpiperidin-4-yl)-1H-indol-4-yl)dihydropyrimidine-2,4 (1H,3H)-dione] showed a pIC50 of 5.92. Against the preceding molecule, the pIC50 is 0.25 log units lower.

Molecule `Cn1ccc2c(N3CCC(=O)NC3=O)cc(N3CCNCC3)cc21` [Example 90, 1-(1-Methyl-6-(piperazin-1-yl)-1H-indol-4-yl)dihydropyrimidine-2,4 (1H,3H)-dione] showed a pIC50 of 6.11. This pIC50 and that of the molecule before are within 0.2 log units of each other.

The molecule `O=C1CCN(c2cc(N3CCNCC3)cc3[nH]ccc23)C(=O)N1` [Example 91, 1-(6-(Piperazin-1-yl)-1H-indol-4-yl)dihydropyrimidine-2,4 (1H,3H)-dione] had a pIC50 of 6.12.

Consider `O=C1CCN(c2ccn3cc(C4CCNCC4)nc3c2)C(=O)N1` [Example 92, 1-(2-(Piperidin-4-yl)imidazo[1,2-a]pyridin-7-yl)dihydropyrimidine-2,4 (1H,3H)-dione], for which the pIC50 is 5.28.

On to `O=C1CCN(c2ccc3c(N4CCNCC4)noc3c2)C(=O)N1` [Example 93, 1-(3-(Piperazin-1-yl)benzo[d]isoxazol-6-yl)dihydropyrimidine-2,4 (1H,3H)-dione], for which the pIC50 was 4.89. This pIC50 lies 0.39 log units lower than the previous one.

In turn, `CN1CCN(c2noc3cc(N4CCC(=O)NC4=O)ccc23)CC1` [Example 94, 1-(3-(4-Methylpiperazin-1-yl)benzo[d]isoxazol-6-yl)dihydropyrimidine-2,4 (1H,3H)-dione] had a pIC50 of 5.38.

`CC(=O)N1CCN(c2noc3cc(N4CCC(=O)NC4=O)ccc23)CC1` [Example 95, 1-(3-(4-Acetylpiperazin-1-yl)benzo[d]isoxazol-6-yl)dihydropyrimidine-2,4 (1H,3H)-dione] showed a pIC50 of 5.18. Compared with the last molecule, the pIC50 is 0.20 log units lower.

As to `O=C1CCN(c2ccc3nc(C4CCNCC4)oc3c2)C(=O)N1` [Example 96, 1-(2-(Piperidin-4-yl)benzo[d]oxazol-6-yl)dihydropyrimidine-2,4 (1H,3H1)-dione], the pIC50 is 5.43.

In turn, `CN1CCC(c2nc3ccc(N4CCC(=O)NC4=O)cc3o2)CC1` [Example 97, 1-(2-(1-Methylpiperidin-4-yl)benzo[d]oxazol-6-yl)dihydropyrimidine-2,4 (1H,3H)-dione] showed a pIC50 of 5.62.

The molecule `O=C1CCN(c2ccc3nc(N4CCNCC4)oc3c2)C(=O)N1` [Example 98, 1-(2-(Piperazin-1-yl)benzo[d]oxazol-6-yl)dihydropyrimidine-2,4 (1H,3H)-dione] showed a pIC50 of 5.51.

`CN1CCN(c2nc3ccc(N4CCC(=O)NC4=O)cc3o2)CC1` [Example 99, 1-(2-(4-Methylpiperazin-1-yl)benzo[d]oxazol-6-yl)dihydropyrimidine-2,4 (1H,3H)-dione] had a pIC50 of 5.34. The pIC50 values of the last two molecules are within 0.2 log units of each other.

Regarding `O=C1CCN(c2ccc3sc(N4CCNCC4)nc3c2)C(=O)N1` [Example 100, 1-(2-(Piperazin-1-yl)benzo[d]thiazol-5-yl)dihydropyrimidine-2,4 (1H,3H)-dione], the pIC50 is 5.97.

`O=C1CCN(c2cccc3nc(N4CCNCC4)sc23)C(=O)N1` [Example 101, 1-(2-(Piperazin-1-yl)benzo[d]thiazol-7-yl)dihydropyrimidine-2,4 (1H,3H)-dione] showed a negative-log IC50 (pIC50) of 6.79.

Turning to `O=C1CCN(c2ccc3cc4n(c3c2)CCNC4)C(=O)N1` [Example 102, 1-(1,2,3,4-Tetrahydropyrazino[1,2-a]indol-7-yl)dihydropyrimidine-2,4 (1H,3H)-dione], the pIC50 is 6.56.

`CN1CCn2c(cc3ccc(N4CCC(=O)NC4=O)cc32)C1` [Example 103, 1-(2-Methyl-1,2,3,4-tetrahydropyrazino[1,2-a]indol-7-yl)dihydropyrimidine-2,4 (1H,3H)-dione] showed a pIC50 of 6.17. Compared with the last molecule, the pIC50 is 0.39 log units lower.

On to `O=C1CCN(c2ccc3c(c2)cc2n3CCNC2)C(=O)N1` [Example 104, 1-(1,2,3,4-Tetrahydropyrazino[1,2-a]indol-8-yl)dihydropyrimidine-2,4 (1H,3H)-dione], for which the pIC50 was 6.55. This pIC50 is 0.38 log units higher than that of the molecule before.

As for `CN1CCn2c(cc3cc(N4CCC(=O)NC4=O)ccc32)C1` [Example 105, 1-(2-Methyl-1,2,3,4-tetrahydropyrazino[1,2-a]indol-8-yl)dihydropyrimidine-2,4 (1H,3H)-dione], the pIC50 was 6.34.

The molecule `O=C1CCN(c2ccc3c(cnn3C3CCNCC3)c2)C(=O)N1` [Example 106, 1-(1-(Piperidin-4-yl)-1H-indazol-5-yl)dihydropyrimidine-2,4 (1H,3H)-dione] gave a pIC50 of 5.39. This pIC50 lies 0.95 log units lower than the previous one.

With `O=C1CCN(c2ccc3nn(C4CCNCC4)cc3c2)C(=O)N1` [Example 107, 1-(2-(Piperidin-4-yl)-2H-indazol-5-yl)dihydropyrimidine-2,4 (1H,3H)-dione], the pIC50 is 5.42.

In the case of `CN1CCC(n2ncc3cc(N4CCC(=O)NC4=O)ccc32)CC1` [Example 108, 1-(1-(1-Methylpiperidin-4-yl)-1H-indazol-5-yl)dihydropyrimidine-2,4 (1H,3H)-dione], the pIC50 was 5.42.

For the origin of these results see patent US20230374007A1, “COMPOUNDS AND THEIR USE IN TREATING CANCER” (AstraZeneca AB, priority 2020, published 2023).
